Measured values published in patent publication US11548919B1, “SARS-CoV-2 polypeptide inhibitors directed against the Env TM domain and methods of treatment using said inhibitors” (priority 2022, dated 2023).
“Also recorded” adds a separate entry of the source. Square brackets hold non-standard residues; d marks the D form. Ends that are not written are not given here. Nap = naphthyl group, N-terminal cap; Aib = CC(C)(N)C(=O)O

Test system: SARS-CoV-2 Omicron variant pseudovirus
Type: cell-based
Settings: for fluorescence of peptide groups versus no-peptide control: N=3

Row | Substance | inhibition of SARS-CoV-2 Omicron pseudovirus infection / replication in mammalian cells | fluorescence of peptide groups versus no-peptide control
1 | NapFFMLUFLMUMEKKKK (Nap-FFML[Aib]FLM[Aib]MEKKKK) | effectively inhibited viral replication; also recorded: significantly inhibited | statistically (p<0.01) less than
2 | NapFFTLUFLTUTEKKKK (Nap-FFTL[Aib]FLT[Aib]TEKKKK) | effectively inhibited viral replication; also recorded: significantly inhibited | statistically (p<0.01) less than
